Data published in patent US20230107642A1 (Erasca, Inc., priority 2020, published 2023).

Target: T1, K-Ras G12C (Homo sapiens, UniProt P01116, G12C)
T1 construct: This protein contained 188 amino acids in total, including an N-terminal 6-Histidine tag; made in house; host or cells: E. coli BL21
Assay: CAF assay (% CAF; method in Example 7, not in this part)
Type: binding
Settings: 10 uM compound, 1 h incubation

| % CAF @ 10 uM, 1h [%] | SMILES |
| --- | --- |
| 53.8 | C=CC(=O)N1C[C@H](C)N(c2nc(=O)n3c4c(c(-c5cc(F)c(F)cc5F)c(Cl)cc24)SC[C@@H]3CC2CCN(CC(F)F)CC2)C[C@H]1C [Example 476, (3S)-7-((2S,5R)-4-acryloyl-2,5-dimethylpiperazin-1-yl)-9-chloro-3-((1-(2,2-difluoroethyl)piperidin-4-yl)methyl)-10-(2,4,5-trifluorophenyl)-2H-[1,4]thiazino[2,3,4-ij]quinazolin-5(3H)-one] |
| 94.3 | C=CC(=O)N1[C@H](C)CN(c2nc(=O)n3c4c(c(-c5ccc(F)cc5F)c(C(F)(F)F)cc24)SC[C@@H]3COC)C[C@@H]1C (atropisomer, axis not shown) [Example 546, (3S,10S)-7-((3S,5R)-4-acryloyl-3,5-dimethylpiperazin-1-yl)-10-(2,4-difluorophenyl)-3-(methoxymethyl)-9-(trifluoromethyl)-2,3-dihydro-5H-[1,4]thiazino[2,3,4-ij]quinazolin-5-one] |
| 95 | C=CC(=O)N1[C@H](C)CN(c2nc(=O)n3c4c(c(-c5ccc(F)cc5F)c(Cl)cc24)SC[C@@H](OC)C3)C[C@@H]1C [Example 505, (3S)-8-((3S,5R)-4-acryloyl-3,5-dimethylpiperazin-1-yl)-10-chloro-11-(2,4-difluorophenyl)-3-methoxy-3,4-dihydro-2H,6H-[1,4]thiazepino[2,3,4-ij]quinazolin-6-one] |
| 89.5 | C=CC(=O)N1C[C@H](C)N(c2nc(=O)n3c4c(c(-c5ccc(F)cc5F)c(C(F)(F)F)cc24)SC[C@@H]3CN2CCN(CC(N)=O)CC2)C[C@H]1C [Example 575, 2-(4-(((3S)-7-((2S,5R)-4-acryloyl-2,5-dimethylpiperazin-1-yl)-10-(2,4-difluorophenyl)-5-oxo-9-(trifluoromethyl)-3,5-dihydro-2H-[1,4]thiazino[2,3,4-ij]quinazolin-3-yl)methyl)piperazin-1-yl)acetamide] |
| 22.6 | C=CC(=O)N1CCN(c2nc(=O)n3c4c(c(-c5cc(F)c(F)cc5F)c(Cl)cc24)SC[C@H]3COCOC)[C@@H](C)C1 [Example 466, (3R)-7-((S)-4-acryloyl-2-methylpiperazin-1-yl)-9-chloro-3-((methoxymethoxy)methyl)-10-(2,4,5-trifluorophenyl)-2H-[1,4]thiazino[2,3,4-ij]quinazolin-5(3H)-one] |
| 80.5 | C=CC(=O)N1[C@H](C)CN(c2nc(=O)n3c4c(c(-c5ccc(F)cc5F)c(C(F)(F)F)cc24)SC[C@@H]3CN2CCC3(CC2)COC3)C[C@@H]1C (atropisomer, axis not shown) [Example 576, (3S,10S)-3-(2-oxa-7-azaspiro[3.5]nonan-7-ylmethyl)-7-((3S,5R)-4-acryloyl-3,5-dimethylpiperazin-1-yl)-10-(2,4-difluorophenyl)-9-(trifluoromethyl)-2H-[1,4]thiazino[2,3,4-ij]quinazolin-5(3H)-one] |
| 48.3 | C=CC(=O)N1[C@H](C)CN(c2nc(=O)n3c4c(c(-c5cc(Cl)c(F)cc5F)c(C(F)(F)F)cc24)SC[C@@H]3CN2CCC3(CC2)COC3)C[C@@H]1C (atropisomer, axis not shown) [Example 565, (3S,10S)-3-((2-oxa-7-azaspiro[3.5]nonan-7-yl)methyl)-7-((3S,5R)-4-acryloyl-3,5-dimethylpiperazin-1-yl)-10-(5-chloro-2,4-difluorophenyl)-9-(trifluoromethyl)-2,3-dihydro-5H-[1,4]thiazino[2,3,4-ij]quinazolin-5-one] |
| 96 | C=CC(=O)N1[C@H](C)CN(c2nc(=O)n3c4c(c(-c5cc(Cl)c(F)cc5F)c(C(F)(F)F)cc24)SC[C@H](OC)C3)C[C@@H]1C [Example 535, (3R)-8-((3S,5R)-4-acryloyl-3,5-dimethylpiperazin-1-yl)-11-(5-chloro-2,4-difluorophenyl)-3-methoxy-10-(trifluoromethyl)-3,4-dihydro-2H,6H-[1,4]thiazepino[2,3,4-ij]quinazolin-6-one] |
| 42 | C=CC(=O)N1CCN(c2nc(=O)n3c4c(c(-c5ccc(F)cc5F)c(Cl)cc24)SC[C@H]3COCOC)[C@@H](C)C1 [Example 479, (3R)-7-((S)-4-acryloyl-2-methylpiperazin-1-yl)-9-chloro-10-(2,4-difluorophenyl)-3-((methoxymethoxy)methyl)-2H-[1,4]thiazino[2,3,4-ij]quinazolin-5(3H)-one] |
| 40.6 | C=CC(=O)N1C[C@H](C)N(c2nc(=O)n3c4c(c(-c5cc(Cl)c(F)cc5F)c(C(F)(F)F)cc24)SC[C@@H]3CN2CCN(CC(F)F)CC2)C[C@H]1C [Example 521, (3S)-7-((2S,5R)-4-acryloyl-2,5-dimethylpiperazin-1-yl)-10-(5-chloro-2,4-difluorophenyl)-3-((4-(2,2-difluoroethyl)piperazin-1-yl)methyl)-9-(trifluoromethyl)-2H-[1,4]thiazino[2,3,4-ij]quinazolin-5(3H)-one] |
| 34.1 | C=CC(=O)N1CCN(c2nc(=O)n3c4c(c(-c5ccc(F)cc5F)c(Cl)cc24)SC[C@@H]3CC2CCN(C)CC2)[C@@H](C)C1 [Example 423, (3S)-7-((S)-4-acryloyl-2-methylpiperazin-1-yl)-9-chloro-10-(2,4-difluorophenyl)-3-((1-methylpiperidin-4-yl)methyl)-2H-[1,4]thiazino[2,3,4-ij]quinazolin-5(3H)-one] |
| 55.1 | C=CC(=O)N1C[C@H](C)N(c2nc(=O)n3c4c(c(-c5ccc(F)cc5)c(Cl)cc24)SC[C@@H]3CN2CCN(CC(F)F)CC2)C[C@H]1C [Example 515, (S)-7-((2S,5R)-4-acryloyl-2,5-dimethylpiperazin-1-yl)-9-chloro-3-((4-(2,2-difluoroethyl)piperazin-1-yl)methyl)-10-(4-fluorophenyl)-2H-[1,4]thiazino[2,3,4-ij]quinazolin-5(3H)-one] |
| 45 | C=CC(=O)N1C[C@H](C)N(c2nc(=O)n3c4c(c(-c5cc(F)c(F)cc5F)c(Cl)cc24)SC[C@@H]3CN2CCC3(CC2)COC3)C[C@H]1C (atropisomer, axis not shown) [Example 485, (3S,10R)-3-((2-oxa-7-azaspiro[3.5]nonan-7-yl)methyl)-7-((2S,5R)-4-acryloyl-2,5-dimethylpiperazin-1-yl)-9-chloro-10-(2,4,5-trifluorophenyl)-2,3-dihydro-5H-[1,4]thiazino[2,3,4-ij]quinazolin-5-one] |
| 48.8 | C=CC(=O)N1C[C@H](C)N(c2nc(=O)n3c4c(c(-c5cc(Cl)c(F)cc5F)c(C(F)(F)F)cc24)SC[C@@H]3COC)C[C@H]1C (atropisomer, axis not shown) [Example 544, (3S,10S)-7-((2S,5R)-4-acryloyl-2,5-dimethylpiperazin-1-yl)-10-(5-chloro-2,4-difluorophenyl)-3-(methoxymethyl)-9-(trifluoromethyl)-2,3-dihydro-5H-[1,4]thiazino[2,3,4-ij]quinazolin-5-one] |

Same assay, conditions: 10 uM, 1 h; Table 3

| % CAF @ 10 uM, 1h [%] | SMILES |
| --- | --- |
| 95.7 | C=CC(=O)N1CCN(c2nc(=O)n3c4c(c(-c5ccc(F)cc5F)c(C(F)(F)F)cc24)SCC3)[C@@H](C)C1 [Example 141, 7-((S)-4-acryloyl-2-methylpiperazin-1-yl)-10-(2,4-difluorophenyl)-9-(trifluoromethyl)-2,3-dihydro-5H-[1,4]thiazino[2,3,4-ij]quinazolin-5-one] |
| 52.8 | C=CC(=O)N1CCN(c2nc(=O)n3c4c(c(-c5ccc(F)cc5F)c(Cl)cc24)S(=O)(=O)CC3)[C@@H](C)C1 [Example 149, (S)-7-((S)-4-acryloyl-2-methylpiperazin-1-yl)-9-chloro-10-(2,4-difluorophenyl)-2,3-dihydro-5H-[1,4]thiazino[2,3,4-ij]quinazolin-5-one 1,1-dioxide] |
| 90.2 | C=CC(=O)N1CCN(c2nc(=O)n3c4c(c(-c5ccc(F)cc5F)c(Cl)cc24)SCC3)C[C@@H]1CC#N [Example 88, 2-((2S)-1-acryloyl-4-(9-chloro-10-(2,4-difluorophenyl)-5-oxo-2,3-dihydro-5H-[1,4]thiazino[2,3,4-ij]quinazolin-7-yl)piperazin-2-yl)acetonitrile] |
| 91.9 | C=CC(=O)N1CCN(c2nc(=O)n3c4c(c(-c5ccc(F)cc5F)c(C#N)cc24)SCC3)[C@@H](C)C1 [Example 132, 7-((S)-4-acryloyl-2-methylpiperazin-1-yl)-10-(2,4-difluorophenyl)-5-oxo-2,3-dihydro-5H-[1,4]thiazino[2,3,4-ij]quinazoline-9-carbonitrile] |
| 39 | C=CC(=O)N1CCN(c2nc(=O)n3c4c(c(-c5cc(C(F)F)ccc5F)c(Cl)cc24)SCC3)[C@@H](C)C1 [Example 162, 7-((S)-4-acryloyl-2-methylpiperazin-1-yl)-9-chloro-10-(5-(difluoromethyl)-2-fluorophenyl)-2,3-dihydro-5H-[1,4]thiazino[2,3,4-ij]quinazolin-5-one] |
| 85 | C=CC(=O)N1CCN(c2nc(=O)n3c4c(c(-c5ccc(F)cc5F)c(Cl)cc24)SCC3)C2COCC21 (stereo not drawn) [Example 134, 7-(4-acryloylhexahydro-furo[3,4-b]pyrazin-1(2H)-yl)-9-chloro-10-(2,4-difluorophenyl)-2,3-dihydro-5H-[1,4]thiazino[2,3,4-ij]quinazolin-5-one] |

Same assay, conditions: 10 μM, 1 h; Table 4

| % CAF @ 10 μM, 1 h [%] | SMILES |
| --- | --- |
| 96 | C=CC(=O)N1CCN(c2nc(=O)n3c4c(c(-c5ccc(F)cc5F)c(Cl)cc24)SC[C@@H]3CN2CCN(C3COC3)CC2)[C@@H](C)C1 [Example 355, (3S)-7-((S)-4-acryloyl-2-methylpiperazin-1-yl)-9-chloro-10-(2,4-difluorophenyl)-3-((4-(oxetan-3-yl)piperazin-1-yl)methyl)-2H-[1,4]thiazino[2,3,4-ij]quinazolin-5(3H)-one] |
